Assay results from patent US20230364032A1, “USE OF 2-HOBA TO TREAT ATHEROSCLEROSIS” (Vanderbilt University, priority 2020, published 2023).
“Also recorded” adds a separate entry of the source.

Experiments:
MDA-apoAI = assay: Plasma MDA-apoAI by immunoprecipitation and western blotting; type: in vivo, mouse
Method: FIGS. 7A-7G show the effects of 2-HOBA on MDA-HDL adducts and HDL function. (7A) The levels or MDA adducts were measured by ELISA in HDL isolated from Ldlr mice treated as described in FIG. 1. Data are presented as mean±SEM (N=8 pet group), *** p<0.001, One-way ANOVA with Bonferroni's post hoc test. (7B) Western blots of apoAl and MDA-apoAl in HDL isolated from plasma by immunoprecipitation using primary anti-apoAl antibody. Ldlf mice were treated as described In FIG. 1 and apoAl and MDA-apoAl from Ldlr mice consuming a chow diet are included f0t comparison. (7C) Quantitation using lmageJ software of the mean density ratio (arbitrary units) of MDA-apoAl to apoAl detected by Western blotting (7B). […]
The study was approved by the Vanderbilt University Institutional Review Board (IRB), and all participants gave their written informed consent. […] After stopping the reaction, the O.D. was measured at 450 nm wavelength. MDA-ApoAI was detected in mouse plasma by immunoprecipitation of ApoAI and western blotting. […] Proteins were visualized and quantitated by Odyssey 3.0 Quantification software (LI-COR).

IsoLG = assay: IsoLG-HOBA adducts/metabolites in liver and heart (LC/MS); type: in vivo, mouse; conditions: for IsoLG-HOBA adducts in hearts and livers: Ldlr−/− mice after 16 weeks on a western diet
Method: To generate an internal standard for quantitation, 10 molar equivalents of the heavy isotope labeled 2-HOBA, [^2H4]2-HOBA, was reacted with synthetic IsoLG^69 overnight in 1 mM triethylammonium acetate buffer to form IsoLG-2-HOBA adducts, and the adducts separated from unreacted [^2H4]2-HOBA and IsoLG by solid phase extraction (Oasis HLB). The isolated reaction products of IsoLG-2-HOBA were scanned by mass spectrometer (Waters Xevo-TQ-Smicro triple quadrupole MS) operating in limited mass scanning mode to identify major products. Additionally, precursor scanning with the product ion set at m/z 111.1 was used to confirm that the detected products were [^2H4]2-HOBA adducts. […] Similar species were seen when IsoLG was reacted with non-labeled 2-HOBA and precursor scanning using product ion m/z 107.1 To identify potential 2-HOBA adducts in tissue of treated animals, the present inventors first generated a list of 18 probable IsoLG-HOBA species [pyrrole, lactam, hydroxylactam based on the in vitro reactions of IsoLG and 2-HOBA and then the anhydro-, dinor-, dinor/anhydro-, tetranor-, and keto-(from oxidation of hydroxyl group) metabolites of each of these three adducts based on previous metabolism studies with prostaglandins and isoprostanes]. The present inventors then analyzed liver homogenate from a 2-HOBA treated mouse using LC/MS with the mass spectrometer operating in positive ion precursor scanning mode and the product ion set to m/z 107.1 and collision energy at 20 eV and looked for the presence of any of these precursor ions. […] M2 m/z 440.3, which mass is consistent with the pyrrole adduct, and M3 m/z 454.3 which mass is consistent with the anhydro-hydroxylactam adduct or the keto-lactam adduct. When then sought to quantify the amount of the putative IsoLG-HOBA adducts in heart and liver samples as there was not sufficient aorta sample remaining from other analysis available to do this analysis.
For these experiments, liver or heart samples from Ldlr^−/− mice treated with 2-HOBA or 4-HOBA were homogenized in 0.5 M Tris buffer solution pH 7.5 containing mixture of antioxidants (pyridoxamine, indomethacin, BHT, TCEP). Total amount of protein in homogenate was determined for normalization. 1 pmol IsoLG-[^2H4]2-HOBA was then added to each homogenate sample as internal standard, the HOBA adducts extracted with ethyl acetate, dried, dissolved in solvent 1 (water with 0.1% acetic acid) and analyzed by LC/MS using Waters Xevo-TQ-Smicro triple quadrupole mass spectrometer operating in positive ion multiple reaction monitoring (MRM) mode, monitoring the following transitions: m/z 438.3→107.1@20 eV for M1; m/z 440→107.1@20 eV for M2; m/z 454→107.1@20 eV for M3; and m/z 476.3→111.1@20 eV for IsoLG-[^2H4]2-HOBA hydroxylactam. Desolvati on temperature: 500° C.; source temperature: 150° C.; capillary voltage: 5 kV, cone voltage: 5 V; cone gas flow 1 L/h; desolvation gas flow 1000 L/h. HPLC condition were as follows: Solvent 1: water with 0.1% acetic acid; Solvent 2, methanol with 0.1% acetic acid; column: Phenomenex Kinetex C8 50×2.1 mm 2.6 u 100 Å, flow rate: 0.4 mL/min; gradient: starting condition 10% B with gradient ramp to 100% B over 3.5 min, hold for 0.5 min, and return to starting conditions over 0.5 min. Abundance for each metabolite was calculated based on the ratio of peak height versus that of internal standard.

[1] = Ldlr−/− mice, Western diet 16 weeks, continuously treated, Mean ± SEM

Compound	plasma levels of MDA-apoAI compared to Ldlr−/− mice consuming a chow diet (MDA-apoAI; after 16 weeks on the western-type diet)	IsoLG-HOBA adducts in hearts and livers (IsoLG)	plasma MDA-apoAI adducts (MDA-apoAI; Ldlr−/− mice consuming a western diet)	IsoLG-HOBA-M1 level, heart (IsoLG; [1]) [nmol/kg]	IsoLG-HOBA-M1 level, liver (IsoLG; [1]) [nmol/kg]	IsoLG-HOBA-M2 level, heart (IsoLG; [1]) [nmol/kg]	IsoLG-HOBA-M2 level, liver (IsoLG; [1]) [nmol/kg]	IsoLG-HOBA-M3 level, heart (IsoLG; [1]) [nmol/kg]	IsoLG-HOBA-M3 level, liver (IsoLG; [1]) [nmol/kg]
NCc1ccc(O)cc1 [4-HOBA, 4-hydroxybenzylamine, reference compound]	markedly increased	nondetectable							
NCc1ccccc1O [2-HOBA, 2-hydroxybenzylamine]		present	inhibited; also recorded: dramatically reduced	0.74 ± 0.21	0.88 ± 0.14	0.57 ± 0.35	0.82 ± 0.12	0.24 ± 0.17	4.17 ± 1.85
